# Data: US8765779B2, “Tricyclic derivatives and their pharmaceutical use and compositions” (Cephalon, Inc., priority 2009, dated 2014)
# Structures can show the parent of a compound that is named as a salt.
row,Compound,melting point
1,"CC(C)Oc1cccc(S(=O)(=O)c2ccc3c4c(oc3c2)C2(CCOC2)NCC4)c1 (single isomer, unassigned) (as salt: HCl) [Example 31, 7-{[3-(propan-2-yloxy)phenyl]sulfonyl}-3,4,4′,5′-tetrahydro-2H-spiro[1-benzofuro[2,3-c]pyridine-1,3′-furan]]",261 to 263 °C (dec.)
2,"CC1(C)CNC2(CCOCC2)c2oc3cc(S(=O)(=O)c4cccc(F)c4)ccc3c21 (as salt: HCl) [Example 2, 7-[(3-fluorophenyl)sulfonyl]-4,4-dimethyl-2′,3,3′,4,5′,6′-hexahydro-2H-spiro[1-benzofuro[2,3-c]pyridine-1,4′-pyran]]",286 to 288 °C
3,"CC1(C2CC2)NCCc2c1oc1cc(S(=O)(=O)c3cccc(F)c3)ccc21 (racemic) (as salt: HCl) [Example 29, 1-cyclopropyl-7-[(3-fluorophenyl)sulfonyl]-1-methyl-1,2,3,4-tetrahydro[1]benzofuro[2,3-c]pyridine]",> 250 °C (dec.)
4,"CC(C)Oc1cccc(S(=O)(=O)c2ccc3c(c2)OC2CNCCC32C)c1 (racemic) (as salt: HCl) [Example 12, 4a-methyl-7-{[3-(propan-2-yloxy)phenyl]sulfonyl}-1,2,3,4,4a,9a-hexahydro[1]benzofuro[2,3-c]pyridine]",206 to 208 °C
5,"CCC1(C)NCCc2c1oc1cc(S(=O)(=O)c3cccc(F)c3)ccc21 (racemic) (as salt: HCl) [Example 27, 1-ethyl-7-[(3-fluorophenyl)sulfonyl]-1-methyl-1,2,3,4-tetrahydro[1]benzofuro[2,3-c]pyridine]",> 300 °C
6,"CC(C)Oc1cccc(S(=O)(=O)c2ccc3c4c(oc3c2)C2(CCOCC2)NCC4)c1 (as salt: HCl) [Example 44, 7-{[3-(propan-2-yloxy)phenyl]sulfonyl}-2′,3,3′,4,5′,6′-hexahydro-2H-spiro[1-benzofuro[2,3-c]pyridine-1,4′-pyran]]",250 °C (dec.)
7,COc1cc(OC)cc(S(=O)(=O)c2ccc3c(c2)OC2CNCCC32C)c1 (centres unmarked) (as salt: HCl) [Example 490],250 to 252 °C
8,"CC12CCNCC1Oc1cc(S(=O)(=O)c3ccccn3)ccc12 (racemic) (as salt: HCl) [Example 8, 4a-methyl-7-(pyridin-2-ylsulfonyl)-1,2,3,4,4a,9a-hexahydro[1]benzofuro[2,3-c]pyridine]",282 to 283 °C
9,"Cc1cccc(S(=O)(=O)c2ccc3c(c2)OC2CNCCC32C)n1 (racemic) (as salt: HCl) [Example 6, 4a-methyl-7-[(6-methylpyridin-2-yl)sulfonyl]-1,2,3,4,4a,9a-hexahydro[1]benzofuro[2,3-c]pyridine]",255 to 258 °C
10,CN(C)C(=O)c1c(F)cccc1S(=O)(=O)c1ccc2c(c1)OC1CNCCC21 (centres unmarked) (as salt: HCl) [Example 476],283 to 286 °C
11,COc1c(F)cc(F)cc1S(=O)(=O)c1ccc2c(c1)OC1CNCCC21C (centres unmarked) (as salt: HCl) [Example 486],259 to 261 °C
12,"CC1(C)NCCc2c1oc1cc(S(=O)(=O)c3cccc(Cl)c3)ccc21 (as salt: HCl) [Example 17, 7-[(3-chlorophenyl)sulfonyl]-1,1-dimethyl-1,2,3,4-tetrahydro[1]benzofuro[2,3-c]pyridine]",> 200 °C (dec.)
13,"CN(C)C(=O)c1cccc(S(=O)(=O)c2ccc3c4c(oc3c2)CNCC4)c1 (as salt: hydrochloride) [Example 474, N,N-Dimethyl-3-(1,2,3,4-tetrahydro[1]benzofuro[2,3-c]pyridin-7-ylsulfonyl)benzamide hydrochloride]",262 to 265 °C
14,CNC(=O)c1cccc(S(=O)(=O)c2ccc3c4c(oc3c2)CNCC4)c1 (as salt: HCl) [Example 478],> 290 °C
15,"CCOCC1NCCc2c1oc1cc(S(=O)(=O)c3cccc(F)c3)ccc21 (racemic) (as salt: HCl) [Example 33, 1-(ethoxymethyl)-7-[(3-fluorophenyl)sulfonyl]-1,2,3,4-tetrahydro[1]benzofuro[2,3-c]pyridine]",230 to 250 °C (dec.)
16,"O=S1(=O)CCC2(CC1)NCCc1c2oc2cc(S(=O)(=O)c3cccc(F)c3)ccc12 (as salt: HCl) [Example 38, 7-[(3-fluorophenyl)sulfonyl]-2′,3,3′,4,5′,6′-hexahydro-2H-spiro[1-benzofuro[2,3-c]pyridine-1,4′-thiopyran] 1′,1′-dioxide]",298 to 300 °C (dec.)
17,"CC1(C(F)F)NCCc2c1oc1cc(S(=O)(=O)c3cccc(F)c3F)ccc21 (single isomer, unassigned; enantiomer 1) (as salt: HCl) [Example 471, 1-(Difluoromethyl)-7-[(2,3-difluorophenyl)sulfonyl]-1-methyl-1,2,3,4-tetrahydro[1]benzofuro[2,3-c]pyridine, enantiomer 1]",247 to 250 °C
18,"CC(C)Oc1cccc(S(=O)(=O)c2ccc3c4c(oc3c2)C(C)(C(F)F)NCC4)c1 (single isomer, unassigned) (as salt: HCl) [Example 34, 1-(difluoromethyl)-1-methyl-7-{[3-(propan-2-yloxy)phenyl]sulfonyl}-1,2,3,4-tetrahydro[1]benzofuro[2,3-c]pyridine]",219 to 222 °C
19,"COc1ccc(S(=O)(=O)c2ccc3c(c2)OC2CNCCC32C)cc1 (racemic) (as salt: HCl) [Example 5, 7-[(4-methoxyphenyl)sulfonyl]-4a-methyl-1,2,3,4,4a,9a-hexahydro[1]benzofuro[2,3-c]pyridine]",283 to 284 °C
20,"O=S(=O)(c1cccc(F)c1)c1ccc2c3c(oc2c1)C1(CCCC1)NCC3 (as salt: HCl) [Example 28, 7-[(3-fluorophenyl)sulfonyl]-3,4-dihydro-2H-spiro[1-benzofuro[2,3-c]pyridine-1,1′-cyclopentane]]",> 250 °C
21,"CC1OCCC12NCCc1c2oc2cc(S(=O)(=O)c3cccc(F)c3)ccc12 (single isomer, unassigned) (as salt: HCl) [Example 59, 7-[(3-Fluorophenyl)sulfonyl]-2′-methyl-3,4,4′,5′-tetrahydro-2H-spiro[1-benzofuro[2,3-c]pyridine-1,3′-furan]]",262 to 265 °C

# Next, values leading:
row,melting point,Compound
1,198 to 203 °C,O=S(=O)(c1cccc(Oc2ccccn2)c1)c1ccc2c(c1)OC1CNCCC21 (centres unmarked) (as salt: HCl) [Example 579]
2,189 to 190 °C,N#CCCCCOc1cccc(S(=O)(=O)c2ccc3c(c2)OC2CNCCC32)c1 (centres unmarked) (as salt: HCl) [Example 574]
3,210 to 213 °C,CCCOc1cccc(S(=O)(=O)c2ccc3c(c2)OC2CNCCC32)c1 (centres unmarked) (as salt: HCl) [Example 572]
4,217 to 227 °C,"CC(=O)NCC1(C)NCCc2c1oc1cc(S(=O)(=O)c3cccc(F)c3)ccc21 (centres unmarked) (as salt: HCl) [Example 631, N-({7-[(3-fluorophenyl)sulfonyl]-1-methyl-1,2,3,4-tetrahydro[1]benzofuro[2,3-c]pyridin-1-yl}methyl)acetamide]"
5,205 to 206 °C,O=S(=O)(c1cccc(OCC2CCCO2)c1)c1ccc2c(c1)OC1CNCCC21 (centres unmarked) (as salt: HCl) [Example 577]
6,201 to 202 °C,Cc1c(OCC2CCOCC2)cccc1S(=O)(=O)c1ccc2c(c1)OC1CNCCC21 (centres unmarked) (as salt: HCl) [Example 582]
7,174 to 175 °C,C#CCOc1cccc(S(=O)(=O)c2ccc3c(c2)OC2CNCCC32)c1 (centres unmarked) (as salt: HCl) [Example 549]
8,206 to 208 °C,CCCCOc1cccc(S(=O)(=O)c2ccc3c(c2)OC2CNCCC32)c1 (centres unmarked) (as salt: HCl) [Example 554]
9,218 to 220 °C,COc1cc(OC2CCC2)cc(S(=O)(=O)c2ccc3c(c2)OC2CNCCC32)c1 (centres unmarked) (as salt: HCl) [Example 583]
10,210 to 260 °C,"CC(=O)NCC1(C)NCCc2c1oc1cc(S(=O)(=O)c3cccc(F)c3)ccc21 (centres unmarked) (as salt: HCl) [Example 632, N-({7-[(3-fluorophenyl)sulfonyl]-1-methyl-1,2,3,4-tetrahydro[1]benzofuro[2,3-c]pyridin-1-yl}methyl)acetamide]"
11,182 to 185 °C,O=S(=O)(c1cccc(OCc2ccncc2)c1)c1ccc2c(c1)OC1CNCCC21 (centres unmarked) (as salt: HCl) [Example 561]
12,237 to 239 °C,NC(=O)COc1cccc(S(=O)(=O)c2ccc3c(c2)OC2CNCCC32)c1 (centres unmarked) (as salt: HCl) [Example 563]
13,247 to 248 °C,COc1cccc(COc2cccc(S(=O)(=O)c3ccc4c(c3)OC3CNCCC43)c2)c1 (centres unmarked) (as salt: HCl) [Example 575]
14,205 to 208 °C,CC(C)Oc1cc(OCCO)cc(S(=O)(=O)c2ccc3c(c2)OC2CNCCC32)c1 (centres unmarked) (as salt: HCl) [Example 590]
15,194 to 195 °C,N#Cc1ccccc1COc1cccc(S(=O)(=O)c2ccc3c(c2)OC2CNCCC32)c1 (centres unmarked) (as salt: HCl) [Example 550]
16,221 to 224 °C,CC(C)Oc1cccc(S(=O)(=O)c2ccc3c(c2)OC2CNCCC32)c1F (centres unmarked) (as salt: HCl) [Example 483]
17,167 to 171 °C,O=S(=O)(c1cccc(OCc2cccnc2)c1)c1ccc2c(c1)OC1CNCCC21 (centres unmarked) (as salt: HCl) [Example 559]
18,208 to 210 °C,O=S(=O)(c1cccc(OCC2CC2)c1)c1ccc2c(c1)OC1CNCCC21 (centres unmarked) (as salt: HCl) [Example 555]
19,175 to 177 °C,O=S(=O)(c1ccc2c(c1)OC1CNCCC21)c1cccc(OCC2CCOCC2)c1F (centres unmarked) (as salt: HCl) [Example 482]
20,211 to 213 °C (dec.),CC(C)Oc1cc(OC(CO)CCl)cc(S(=O)(=O)c2ccc3c(c2)OC2CNCCC32)c1 (centres unmarked) (as salt: HCl) [Example 589]
21,164 to 166 °C,COCCCOc1cc(OC(C)C)cc(S(=O)(=O)c2ccc3c(c2)OC2CNCCC32)c1 (centres unmarked) (as salt: HCl) [Example 588]
22,179 to 181 °C,COC(=O)CCCCOc1cccc(S(=O)(=O)c2ccc3c(c2)OC2CNCCC32)c1 (centres unmarked) (as salt: HCl) [Example 556]
23,187 to 190 °C,Cn1cnc(COc2cccc(S(=O)(=O)c3ccc4c(c3)OC3CNCCC43)c2)n1 (centres unmarked) (as salt: HCl) [Example 560]
